Biological target: T1, Aurora2 (Aurora-A) (Homo sapiens, UniProt O14965)
T1 construct: Aurora-A: the full length recombinant protein including an N-terminal poly-histidine tail has been expressed in E. coli; poly-histidine (N); made in house; host or cells: E. coli
T1 sequence (O14965 1-403): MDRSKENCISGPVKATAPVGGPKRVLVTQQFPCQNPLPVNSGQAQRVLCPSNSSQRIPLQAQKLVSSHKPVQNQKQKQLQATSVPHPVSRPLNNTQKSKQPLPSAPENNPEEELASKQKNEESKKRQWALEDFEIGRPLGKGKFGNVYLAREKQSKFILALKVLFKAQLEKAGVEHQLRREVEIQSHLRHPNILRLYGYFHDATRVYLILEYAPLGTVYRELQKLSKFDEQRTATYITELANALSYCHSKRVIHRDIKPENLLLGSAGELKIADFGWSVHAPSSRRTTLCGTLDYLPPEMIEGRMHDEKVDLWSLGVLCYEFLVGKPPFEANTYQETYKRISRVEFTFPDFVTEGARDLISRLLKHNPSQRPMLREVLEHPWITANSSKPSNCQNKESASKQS
Assay: Aurora 2 (Aurora A) kinase radioactivity scintillation assay using nickel chelate Flash plates
Type: biochemical
Details: 10 nM Aurora-A, 500 nM NuMA substrate, 1 μM ATP with [33P] ATP, 10 mM MgCl2, 30 minutes, 37° C.
Description: Aurora 1 and 2 (Respectively. Aurora B and A)
The inhibitory effect of compounds with respect to the Aurora 1 and 2 kinases is determined with a radioactivity scintillation assay using nickel chelate.
The kinase activity of Aurora is measured by the phosphorylation of NuMA-histidine substrate in the presence of radiolabelled ATP ([^33P] ATP) using 96 well Flash plates where the nickel-chelate is linked to the surface of the microplate. The amount of ^33P incorporated to the substrate NuMA is proportional to the aurora activity.
The Flash plates used are nickel-chelate 96 well plates (Perkin Elmer, model SMP107).
The products to be evaluated are incubated in a 100 μl reaction volume per well in the presence of 10 nM of Aurora-B or Aurora-A, 500 nM of NuMA substrate in the following buffer: 50 mM of NaCl, 5 mM MgCl2, (Aurora-B) or 10 mM MgCl2 (Aurora-A) and 1 mM of DTT at 37° C.
80 μL of enzyme/substrate incubation buffer is distributed in each well, followed by 10 μL of solution of compound to be measured with various concentrations. The reaction is started by adding 1 μM of ATP (final concentration) containing 0.2 μCi of [^33P] ATP (10 μL). After 30 minutes of incubation the reaction is stopped by removal of the reaction mixture and each well is washed twice with 300 μl of buffer Tris/HCl. The radioactivity is measured in each well using a Packard Top count scintillation counter instrument.
The enzymatic activity is expressed as counts per minute obtained in 30 minutes after subtraction of the background noise (reaction medium without enzyme). The measurement is expressed as percentage of inhibition of Aurora activity versus the control. To generate IC50 values, compounds of the invention are tested at different concentration and the percentage of inhibition are plotted as function of compound concentration, IC50s are calculated using the Xlfit 4 curve fitting software.

Structure (SMILES) | IC50 [µM]
O=C1CNCC2=C1C(c1ccc(-c3ccc(Cl)cc3)o1)c1c[nH]nc1N2 (stereo not shown) [Example 16, 4-[5-(4-Chloro-phenyl)-furan-2-yl]-2,4,6,7,8,9-hexahydro-pyrazolo[3,4-b]-1,7-naphthyridin-5-one; compound with trifluoro-acetic acid] | 1.08
O=C1CNCC2=C1C(c1ccc(-c3ccccc3C(F)(F)F)o1)c1c[nH]nc1N2 (stereo not shown) [Example 17, 4-[5-(2-trifluoromethyl-phenyl)-furan-2-yl]-2,4,6,7,8,9-hexahydro-pyrazolo[3,4-b]-1,7-naphthyridin-5-one; compound with trifluoro-acetic acid] | 0.888
O=C1CNCC2=C1C(c1ccc(-c3cccc(C(F)(F)F)c3)o1)c1c[nH]nc1N2 (stereo not shown) [Example 18, 4-[5-(3-trifluoromethyl-phenyl)-furan-2-yl]-2,4,6,7,8,9-hexahydro-pyrazolo[3,4-b]-1,7-naphthyridin-5-one; compound with trifluoro-acetic acid] | 2.15
O=C1CNCC2=C1C(c1ccc(COc3ccc(Cl)c(Cl)c3)o1)c1c[nH]nc1N2 (stereo not shown) [Example 19, 4-[5-(3,4-Dichloro-phenoxymethyl)-furan-2-yl]-2,4,6,7,8,9-hexahydro-pyrazolo[3,4-b]-1,7-naphthyridin-5-one; compound with trifluoro-acetic acid] | 8.39
O=C1CCCC2=C1C(c1ccc(-c3cccc(Cl)c3)o1)c1c[nH]nc1N2 (stereo not shown) [Example 23] | 2.41
O=C1CCCC2=C1C(c1ccc(COc3ccc(Cl)c(Cl)c3)o1)c1c[nH]nc1N2 (stereo not shown) [Example 24, 4-[5-(3,4-Dichloro-phenoxymethyl)-furan-2-yl]-2,4,6,7,8,9-hexahydro-pyrazolo[3,4-b]quinolin-5-one; compound with trifluoro-acetic acid] | 0.291
O=C1CCCC2=C1C(c1ccc(-c3cccc(C(F)(F)F)c3)o1)c1c[nH]nc1N2 (stereo not shown) [Example 25, 4-[5-(3-Trifluoromethyl-phenyl)-furan-2-yl]-2,4,6,7,8,9-hexahydro-pyrazolo[3,4-b]quinolin-5-one; compound with trifluoro-acetic acid] | 3.07
O=C1CCCC2=C1C(c1ccc(-c3ccccc3C(F)(F)F)o1)c1c[nH]nc1N2 (stereo not shown) [Example 26, 4-[5-(2-Trifluoromethyl-phenyl)-furan-2-yl]-2,4,6,7,8,9-hexahydro-pyrazolo[3,4-b]quinolin-5-one; compound with trifluoro-acetic acid] | 1.03
O=C1CCCC2=C1C(c1ccc(-c3ccc(Cl)cc3)o1)c1c[nH]nc1N2 (stereo not shown) [Example 27, 4-[5-(4-Chloro-phenyl)-furan-2-yl]-2,4,6,7,8,9-hexahydro-pyrazolo[3,4-b]quinolin-5-one; compound with trifluoro-acetic acid] | 4.92
Cn1c2c(c(=O)n(C)c1=O)C(c1cccc(Oc3ccc(Cl)cc3)c1)c1c[nH]nc1N2 (stereo not shown) [Example 43, 4-[3-(4-Chloro-phenoxy)-phenyl]-6,8-dimethyl-2,4,8,9-tetrahydro-1,2,6,8,9-pentaaza-cyclopenta[b]naphthalene-5,7-dione; compound with trifluoro-acetic acid] | 9.7
O=C1CN(CC(O)CN2CCOCC2)CC2=C1C(c1cccc(Oc3ccc(Cl)cc3)c1)c1c[nH]nc1N2 (stereo not shown) [Example 50, 4-[3-(4-Chloro-phenoxy)-phenyl]-7-(2-hydroxy-3-morpholin-4-yl-propyl)-2,4,6,7,8,9-hexahydro-pyrazolo[3,4-b]-1,7-naphthyridin-5-one; compound with trifluoro-acetic acid] | 0.227
Cc1noc(C)c1C(=O)N1CC(=O)C2=C(C1)Nc1n[nH]cc1C2c1cccc(Oc2ccc(Cl)cc2)c1 (stereo not shown) [Example 53, 4-[3-(4-Chloro-phenoxy)-phenyl]-7-(3,5-dimethyl-isoxazole-4-carbonyl)-2,4,6,7,8,9-hexahydro-pyrazolo[3,4-b]-1,7-naphthyridin-5-one; compound with trifluoro-acetic acid] | 7.37
O=C1CN(C(=O)c2ccno2)CC2=C1C(c1cccc(Oc3ccc(Cl)cc3)c1)c1c[nH]nc1N2 (stereo not shown) [Example 54, 4-[3-(4-Chloro-phenoxy)-phenyl]-7-(isoxazole-5-carbonyl)-2,4,6,7,8,9-hexahydro-pyrazolo[3,4-b]-1,7-naphthyridin-5-one; compound with trifluoro-acetic acid] | 6.1

More lines, now with the values ahead:

IC50 [µM] | Structure (SMILES)
7.45 | Cc1cc(C2C3=C(CNCC3=O)Nc3n[nH]cc32)ccc1O (stereo not shown) [Example 1, 4-(4-Hydroxy-3-methyl-phenyl)-2,4,6,7,8,9-hexahydro-pyrazolo[3,4-b]-1,7-naphthyridin-5-one; compound with trifluoro-acetic acid]
0.696 | CC(C)(C)c1ccc(Oc2cccc(C3C4=C(CNCC4=O)Nc4n[nH]cc43)c2)cc1 (stereo not shown) [Example 8, 4-[3-(4-tert-Butyl-phenoxy)-phenyl]-2,4,6,7,8,9-hexahydro-pyrazolo[3,4-b]-1,7-naphthyridin-5-one; compound with trifluoro-acetic acid]
1.13 | Cc1ccc(Oc2cccc(C3C4=C(CNCC4=O)Nc4n[nH]cc43)c2)cc1 (stereo not shown) [Example 11, 4-(3-p-Tolyloxy-phenyl)-2,4,6,7,8,9-hexahydro-pyrazolo[3,4-b]-1,7-naphthyridin-5-one; compound with trifluoro-acetic acid]
2.32 | O=C1CCCC2=C1C(c1cccc(Oc3ccc(Cl)cc3)c1)c1c[nH]nc1N2 (stereo not shown) [Example 22, 4-[3-(4-Chloro-phenoxy)-phenyl]-2,4,6,7,8,9-hexahydro-pyrazolo[3,4-b]quinolin-5-one; compound with trifluoro-acetic acid]
7.2 | Cc1nnsc1C(=O)N1CC(=O)C2=C(C1)Nc1n[nH]cc1C2c1cccc(Oc2ccc(Cl)cc2)c1 (stereo not shown) [Example 55, 4-[3-(4-Chloro-phenoxy)-phenyl]-7-(4-methyl-[1,2,3]thiadiazole-5-carbonyl)-2,4,6,7,8,9-hexahydro-pyrazolo[3,4-b]-1,7-naphthyridin-5-one; compound with trifluoro-acetic acid]
6.5 | O=C1CNCC2=C1C(c1cccc(C(=O)NCc3ccc(OC(F)(F)F)cc3)c1)c1c[nH]nc1N2 (stereo not shown) [Example 60, 3-(5-Oxo-2,4,6,7,8,9-hexahydro-pyrazolo[3,4b]-1,7-naphthyridin-4-yl)-N-(4-trifluoromethoxy-benzyl)-benzamide; compound with trifluoro-acetic acid]
3.3 | O=C1CNCC2=C1C(c1cccc(C(=O)Nc3ccc(OC(F)(F)F)cc3)c1)c1c[nH]nc1N2 (stereo not shown) [Example 63, 3-(5-Oxo-2,4,6,7,8,9-hexahydro-pyrazolo[3,4b]-1,7-naphthyridin-4-yl)-N-(4-trifluoromethoxy-phenyl)-benzamide; compound with trifluoro-acetic acid]
4.1 | O=C1CNCC2=C1C(c1cccc(C(=O)Nc3cccc(OC(F)(F)F)c3)c1)c1c[nH]nc1N2 (stereo not shown) [Example 64, 3-(5-Oxo-2,4,6,7,8,9-hexahydro-pyrazolo[3,4b]-1,7-naphthyridin-4-yl)-N-(3-trifluoromethoxy-phenyl)-benzamide; compound with trifluoro-acetic acid]
0.63 | O=C1CNCC2=C1C(c1cccc(NC(=O)c3ccc(Cl)cc3)c1)c1c[nH]nc1N2 (stereo not shown) [Example 65, 4-Chloro-N-[3-(5-Oxo-2,4,6,7,8,9-hexahydro-pyrazolo[3,4b]-1,7-naphthyridin-4-yl)-phenyl]-benzamide; compound with trifluoro-acetic acid]

— patent US8163768B2, “1,4-dihydropyridine-fused heterocycles, process for preparing the same, use and compositions containing them” (Aventis Pharma S.A.., priority 2005, dated 2012)
